US20180077929A1, “METHODS AND SYSTEMS FOR TREATING MEDICAL DEVICES AND FLUIDS” (priority 2016, published 2018)
Values joined by “and” are separate entries in the source; they are usually repeats but may differ in a detail not shown here. Identical values can stand only once.

Tests used:
[1] = Wound dressing (fibrin pad) testing in cyclohexane containing CaSt; assay type: biochemical; details: dressing spiked with 8.9 EU, 15 minutes in 10 mL cyclohexane with 0.1 g CaSt
Procedure: A wound dressing containing dry fibrinogen and dry thrombin on an absorbable support was tested as follows. The pad was spiked with LPS and then exposed to cyclohexane containing CaSt to determine the effect on detectable LPS.
Three 1×2 inch pieces of the dressing were spiked with endotoxin resulting in 8.9 EU of LPS. The pieces were allowed to dry for 20 minutes, then placed into 50 mL polypropylene conical tubes. 7.5 mL of LAL reagent water+2.5 mL 0.25M tris buffer was added to Tube 1. 10 mL of cyclohexane with 0.1 g of CaSt was added to Tube 2. 10 mL of cyclohexane was added to Tube 3. The tubes were closed and then placed on the bottle roller rotator machine for 15 minutes so that the tube could continuously roll and the dressing was constantly in contact with liquid.
Tube 1 solution was then diluted and tested for endotoxin on the MCS system. The fibrin pad pieces from Tube 2 and Tube 3 were removed and placed in new tubes and extracted in 7.5 mL of LAL reagent water+2.5 mL 0.25M tris buffer. The solutions were then tested on the MCS system for endotoxin (LPS).

[2] = Animal study: calcium stearate alone dosed intraperitoneally (NC-2); assay type: in vivo; details: NC-2: 0.2 g Calcium Stearate in 5.0 mL normal saline, intraperitoneal, female rats, observed 4 days
Procedure: (§1) An animal study was conducted with 30 female rats with weights ranging from 250-300 g and acclimated for 5 days. All rats were dosed with intraperitoneal injections using 18 gauge needles. The rats were broken into 6 groups. A negative control (NC-1) dosed 5 rats with 5 mL of normal saline solution. […] A positive control (PC-1) dosed 5 rats with 2.5 million EU in a 5 mL saline solution. A second positive control (PC-2) was conducted dosing 5 rats with 5 million endotoxin units in a 5 mL normal saline solution. Two experimental test groups were conducted.
(§2) The negative control samples also had no toxicity.

[3] = Detection of LPS after adding CaSt powder to water spiked with LPS (Kinetic Chromogenic Method, Endosafe MCS); assay type: biochemical
Procedure: Water and aqueous solutions (containing LPS with various sources of endotoxin) were exposed to calcium stearate [CaSt] […] 5 mL of water solution of known endotoxin concentration (generated by spiking endotoxin-free water with water solution of known endotoxin concentration) was added to the each test tube, vortexed vigorously (1 minute) using Fisher Scientific Digital Vortex Mixer, and then placed in a warm water bath (37° C.) for 1 hour. After 1 hour, the tubes were removed from warm water bath and vortexed vigorously (1 minute). Sterile syringes with needles were used to extract the solution without removing the calcium stearate. This solution was then tested for endotoxin levels. Kinetic Chromogenic Method for Endotoxin Quantitation, using Endosafe MCS Multi Cartridge System by Charles River Laboratories, Charleston S.C.
The total LPS added to test tubes was about 5 EU, with the detected LPS after the treatment was 3% to 8% of the initial concentration.
The total LPS added to test tubes was about 14400 EU, with the detected LPS after the treatment was 0.07%-0.08% of the initial concentration.
The total LPS added to test tubes was about 14400 EU, with the detected LPS after the treatment was CaSt dependent and was a function of the amount of CaSt added. CaSt addition ranged about 100 fold from 0.0027 g to 0.25 g, with the detected LPS after the treatment was ranging from 77% to 0.19% of respectively as a percent of the initial concentration. […] In summary, there are three factors that drive the stearates performance to remove/neutralize endotoxins. These three factors, not necessarily listed in order of importance, are concentration, time of exposure, and energy in solution at the micro level.

[4] = Animal study: intraperitoneal endotoxin mixed with calcium stearate; assay type: in vivo; details: female rats, 4 days, endotoxin alone: severe toxicity
Procedure: as §1, §2

[5] = Efficacy of sonicated CaSt suspension stored 1 month; assay type: biochemical
Procedure: 10 ml of LRW water (LAL reagent water, contains no endotoxin) containing 0.04 g of CaSt suspension was sonicated using Misonix Probe Sonicator, Model: S-4000, Amplitude: 30, Time: 30 seconds and then the suspension was stored for 1 month at ambient temperature. Then 1 ml of the above suspension was added to 10 ml endotoxin containing water SRW and the resulting endotoxin concentrations in the combined solution measured after 15 min and 30 min, with the results presented in Table 14.

[6] = Suture testing in ethanol, cyclohexane, isopropanol with 1% CaSt; assay type: biochemical; details: for Endotoxin Detected: control suture 68.1 EU
Procedure: Similarly to the testing above, an absorbable suture of the same type, similarly contaminated, was exposed to CaSt in three solvents (ethanol, cyclohexane, isopropanol). The suture was then tested for LPS. […] In presence of CaSt 1% suspension (CaSt could be slightly soluble in the solvents), LPS activity decreased by 75-95%.
Sutures used were 27 inch long pieces of absorbable lactide-glycolide sutures. Endotoxin sources used were Stagnant Rain Water (SRW) and LRW (3980 EU/mL). 7 strands of suture were placed in tubing with endotoxin solution for 10 minutes at a time. The sutures were dried for 20 minutes and then placed in round bottom tubes. […] 1 suture was placed in each tube and vortexed in this solution for approximately 10 seconds. The sutures were removed and allowed to dry for 20 minutes and then placed in round bottom tubes. This was done for 6 sutures. 1 piece of suture, serving as the control, was not submerged in any solutions and placed in test tubes. 3 mL of LAL reagent water was added to each test tube, vortexed vigorously, and then placed in a hot water bath at 37° C. for 1 hour. They were then removed, vortexed vigorously, diluted, and tested on the MCS system.

[7] = 0.0027 g CaSt in 5 mL water, 14,400 EU spiked
[8] = 0.0108 g CaSt in 5 mL water, 14,400 EU spiked
[9] = 0.0518 g CaSt in 5 mL water, 14,400 EU spiked
[10] = 0.2502 g CaSt in 5 mL water, 14,400 EU spiked
[11] = 0.254-0.2607 g CaSt powder in 5 mL water, 14,400 EU spiked, 0.254 g CaSt powder added
[12] = 0.254-0.2607 g CaSt powder in 5 mL water, 14,400 EU spiked, 0.2607 g CaSt powder added

Calcium Stearate
Endotoxin detected on Pad [1]: 1.8 EU | Percent Endotoxin detected as compared to Tube 1 [1]: 20.2% | Endotoxin detected on Pad ([1]; listed as CaSt): 2 EU | Results (toxicity observed) [2]: No Toxicity | Endotoxin Detected [3, 7]: 11,055 EU | Percent of detected Endotoxin vs. initial concentration [3, 7]: 77% and 76.77% | Endotoxin Detected [3, 8]: 2,925 EU | Percent of detected Endotoxin vs. initial concentration [3, 8]: 20% and 20.31% | Endotoxin Detected [3, 9]: 9.4 EU | Percent of detected Endotoxin vs. initial concentration [3, 9]: 0.07% | Endotoxin Detected [3, 10]: 26.7 EU | Percent of detected Endotoxin vs. initial concentration [3, 10]: 0.19% | Percent of detected Endotoxin vs. initial concentration ([3]; 0.252-0.272 g CaSt powder in 5 mL water, 5.208 EU spiked, 37° C. 1 hour, 0.252 g CaSt powder added): <2.88% | Percent of detected Endotoxin vs. initial concentration ([3]; 0.252-0.272 g CaSt powder in 5 mL water, 5.208 EU spiked, 37° C. 1 hour, 0.258 g CaSt powder added): <8.06% | Percent of detected Endotoxin vs. initial concentration ([3]; 0.252-0.272 g CaSt powder in 5 mL water, 5.208 EU spiked, 37° C. 1 hour, 0.267 g CaSt powder added): <3.46% | Endotoxin Detected [3, 11]: 12.1 EU | Percent of detected Endotoxin vs. initial concentration [3, 11]: 0.08% | Endotoxin Detected [3, 12]: 10.3 EU | Percent of detected Endotoxin vs. initial concentration [3, 12]: 0.07% | Results (toxicity observed) ([4]; T-1: 2,500,000 EU + 0.2 g Calcium Stearate in 5.0 mL normal saline dosed IP): No Toxicity | Results (toxicity observed) ([4]; T-1: 2,500,000 EU + 0.2 g Calcium Stearate in 5.0 mL normal saline dosed IP, listed as calcium stearate): no toxicity or adverse effects | Results (toxicity observed) ([4]; T-2: 5,000,000 EU + 0.2 g Calcium Stearate in 5.0 mL normal saline dosed IP): No Toxicity | Results (toxicity observed) ([4]; T-2: 5,000,000 EU + 0.2 g Calcium Stearate in 5.0 mL normal saline dosed IP, listed as calcium stearate): no toxicity or adverse effects | Endotoxin EU/mL (15 min after addition of CaSt suspension) ([5]; 0.04 g CaSt in 10 ml LRW sonicated, stored 1 month, initial endotoxin 732.5 EU/mL, 15 min): 372 EU/mL and 362 EU/mL | Endotoxin EU/mL (30 min after addition of CaSt suspension) ([5]; 0.04 g CaSt in 10 ml LRW sonicated, stored 1 month, initial endotoxin 732.5 EU/mL, 30 min): 384 EU/mL and 278 EU/mL | Percent Endotoxin Removal (15 min) ([5]; sonicated CaSt suspension stored 1 month, 15 min): 49.2% and 50.6% | Percent Endotoxin Removal (30 min) ([5]; sonicated CaSt suspension stored 1 month, 30 min): 47.6% and 62.0% | LPS activity decreased by ([6]; CaSt 1% suspension in ethanol, cyclohexane, isopropanol): 75-95% | Change in Endotoxin Level ([6]; suture in Cyclohexane w/1% Calcium Stearate (0.0858 g) vs. control suture): −94.1% | Endotoxin Detected ([6]; suture in Cyclohexane w/1% Calcium Stearate (0.0858 g)): 4.02 EU | Change in Endotoxin Level ([6]; suture in Ethanol w/1% Calcium Stearate (0.0827 g) vs. control suture): −77.9% | Endotoxin Detected ([6]; suture in Ethanol w/1% Calcium Stearate (0.0827 g)): 15.06 EU | Change in Endotoxin Level ([6]; suture in Isopropanol w/1% Calcium Stearate (0.0841 g) vs. control suture): −75.6% | Endotoxin Detected ([6]; suture in Isopropanol w/1% Calcium Stearate (0.0841 g)): 16.59 EU
